Measurements: patent publication EP2998289B1, “COMPOUNDS FOR TARGETING DRUG DELIVERY AND ENHANCING SIRNA ACTIVITY” (NITTO DENKO CORPORATION, priority 2011, dated 2012)

Assays:
[1] = test system: gp46; assay: in vivo efficacy, rat DMNQ short-term liver damage model (liver gp46 mRNA)
[2] = test system: gp46; assay: pHSC in vitro assay: gp46/HSP47 mRNA knockdown by siRNA formulations, qRT-PCR; settings: for in vitro (pHSC) EC50 or % KD: % KD @ 50 nM, 20:20 HEDC:S104 with 2% conjugate; for in vitro (pHSC) % KD: @ 50 nM, label = cationic lipid of the formulation, 2880 min
[3] = @ 0.75 mpk, 20:20 HEDC:S104 with 2% retinoid conjugate

## CC1=C(/C=C/C(C)=C/C=C/C(C)=C/C(=O)NCCCC[C@H](NC(=O)/C=C(C)/C=C/C=C(C)/C=C/C2=C(C)CCCC2(C)C)C(=O)NCCCOCCOCCOCCCNC(=O)CCOCCOCCOCCOCCOCCC(=O)NCCCOCCOCCOCCCNC(=O)[C@H](CCCCNC(=O)/C=C(C)/C=C/C=C(C)/C=C/C2=C(C)CCCC2(C)C)NC(=O)/C=C(C)/C=C/C=C(C)/C=C/C2=C(C)CCCC2(C)C)C(C)(C)CCC1 [DiVA, N1,N19-bis((S,23E,25E,27E,29E)-16-((2E,4E,6E,8E)-3,7-dimethyl-9-(2,6,6-trimethylcyclohex-1-en-1-yl)nona-2,4,6,8-tetraenamido)-24,28-dimethyl-15,22-dioxo-30-(2,6,6-trimethylcyclohex-1-en-1-yl)-4,7,10-trioxa-14,21-diazatriaconta-23,25,27,29-tetraen-1-yl)-4,7,10,13,16-pentaoxanonadecane-1,19-diamide]
[1]; [3]
  in vivo (rat DMNQ) % KD: 60% @ 0.75 mpk
[2]; Rattus norvegicus, read-out: in vitro (pHSC) EC50 or % KD
  inhibition at 0.05 µM: 74%

## CCCCCCCCCCCCCC(=O)NCCCC[C@@H](NC(=O)CCCCCCCCCCCCC)C(=O)NCCCOCCOCCOCCCNC(=O)CCOCCOCCOCCOCCOCCC(=O)NCCCOCCOCCOCCCNC(=O)[C@@H](CCCCNC(=O)CCCCCCCCCCCCC)NC(=O)CCCCCCCCCCCCC [Example 4Myr, N1,N19-bis((R)-15,22-dioxo-16-tetradecanamido-4,7,10-trioxa-14,21-diazapenta-triacontyl)-4,7,10,13,16-pentaoxanonadecane-1,19-diamide]
[2]
  in vitro (pHSC) EC50 or % KD: 27% @ 50 nM

## CCCCCCCC/C=C\CCCCCCCC(=O)OCCN(CCOC(=O)CCCCCCC/C=C\CCCCCCCC)C(=O)C[N+](C)(CCO)CCO.[Br-] [HE2DODC, 2-(bis(2-(oleoyloxy)ethyl)amino)-N,N-bis(2-hydroxyethyl)-N-methyl-2-oxoethanaminium bromide]
[2]
  in vitro (pHSC) % KD: 78% @ 50 nM

## CCCCCCCCCCCCCC(=O)OCCN(CCOC(=O)CCCCCCCCCCCCC)C(=O)CC[N+](C)(C)CCO.[Br-] [HE-Et-DC, 3-(bis(2-(tetradecanoyloxy)ethyl)amino)-N-(2-hydroxyethyl)-N,N-dimethyl-3-oxopropan-1-aminium bromide]
[2]
  in vitro (pHSC) % KD: 70% @ 50 nM

## CCCCCCCC/C=C\CCCCCCCC(=O)OCCN(CCOC(=O)CCCCCCC/C=C\CCCCCCCC)C(=O)CC[N+](C)(C)CCO.[Br-] [HE-Et-DODC, 3-(bis(2-(oleoyloxy)ethyl)amino)-N-(2-hydroxyethyl)-N,N-dimethyl-3-oxopropan-1-aminium bromide]
[2]
  in vitro (pHSC) % KD: 71% @ 50 nM

## CCCCCCCCCCCCCC(=O)OCCN(CCOC(=O)CCCCCCCCCCCCC)C(=O)CCC[N+](C)(C)CCO.[Br-] [HE-Pr-DC, 4-(bis(2-(tetradecanoyloxy)ethyl)amino)-N-(2-hydroxyethyl)-N,N-dimethyl-4-oxobutan-1-aminium bromide]
[2]
  in vitro (pHSC) % KD: 47% @ 50 nM

## CCCCCCCC/C=C\CCCCCCCC(=O)OCCN(CCOC(=O)CCCCCCC/C=C\CCCCCCCC)C(=O)CCC[N+](C)(C)CCO.[Br-] [HE-Pr-DODC, 4-(bis(2-(oleoyloxy)ethyl)amino)-N-(2-hydroxyethyl)-N,N-dimethyl-4-oxobutan-1-aminium bromide]
[2]
  in vitro (pHSC) % KD: 75% @ 50 nM

## CCCCCCCCCCCCCC(=O)OCCN(CCOC(=O)CCCCCCCCCCCCC)C(=O)C[N+](C)(C)CCO.[Br-] [HEDC, 2-(bis(2-(tetradecanoyloxy)ethyl)amino)-N-(2-hydroxyethyl)-N,N-dimethyl-2-oxoethanaminium bromide]
[1]; @ 0.5 mpk, label = cationic lipid of the formulation
  in vivo (rat DMNQ) % KD: 52% @ 0.5 mpk
[2]
  in vitro (pHSC) % KD: 68% @ 50 nM

## CCCCCCCC/C=C\CCCCCCCC(=O)OCCCN(CCCOC(=O)CCCCCCC/C=C\CCCCCCCC)C(=O)C[N+](C)(C)CCO.[Br-] [Pr-HE-DODC, 2-(bis(3-(oleoyloxy)propyl)amino)-N-(2-hydroxyethyl)-N,N-dimethyl-2-oxoethanaminium bromide]
[2]
  in vitro (pHSC) % KD: 73% @ 50 nM

## CCCCCCCCCCCCCC(=O)OCCCN(CCCOC(=O)CCCCCCCCCCCCC)C(=O)C[N+](C)(C)CCO.[Br-] [Pr-HEDC, 2-(bis(3-(tetradecanoyloxy)propyl)amino)-N-(2-hydroxyethyl)-N,N-dimethyl-2-oxoethanaminium bromide]
[2]
  in vitro (pHSC) % KD: 75% @ 50 nM

## N1,N19-bis((16S)-16-(3,7-dimethyl-9-(2,6,6-trimethylcyclohex-1-en-1-yl)nonanamido)-24,28-dimethyl-15,22-dioxo-30-(2,6,6-trimethylcyclohex-1-en-1-yl)-4,7,10-trioxa-14,21-diazatriacontyl)-4,7,10,13,16-pentaoxanonadecane-1,19-diamide [satDiVA]
[1]; [3]
  in vivo (rat DMNQ) % KD: 74% @ 0.75 mpk
[2]
  in vitro (pHSC) EC50 or % KD: 73% @ 50 nM

## N1,N19-bis((R)-1,8-dioxo-7-(4-((E)-2-(5,5,8,8-tetramethyl-5,6,7,8-tetrahydro-naphthalen-2-yl)prop-1-en-1-yl)benzamido)-1-(4-((E)-2-(5,5,8,8-tetramethyl-5,6,7,8-tetrahydronaphthalen-2-yl)prop-1-en-1-yl)phenyl)-13,16,19-trioxa-2,9-diazadocosan-22-yl)-4,7,10,13,16-pentaoxanonadecane-1,19-diamide [Example 4TTNPB]
[2]
  in vitro (pHSC) EC50 or % KD: 34% @ 50 nM
